# Assay results as given in patent US20250176550A1, “HERBICIDE COMPOSITION OF URACIL COMPOUND CONTAINING CARBOXYLATE FRAGMENT AND THE USE THEREOF” (Jiangsu Flag Chemical Industry Co., Ltd., priority 2022, published 2025).
# Experiments:
# Experiment in all cases: Indoor virulence and combined effect, greenhouse pot test, post-emergence stem and leaf spray, fresh weight inhibition
# Format in all cases: in vivo
# [1] = tested on: eleusine indica
# Protocol: (§1) The active ingredients A and B are respectively screened and an indoor combined effect of the composition on weeds was evaluated by an indoor test and a field test, to determine a combined effect of the composition on weeds.
# (§2) Quantitative seeds of Poaceae weeds (echinochloa crusgalli, Digitaria sanguinalis, setaria viridis, Eleusine indica, avena fatua, alopecurus japonicus, alopecurus aequalis, Lolium multiflorum) and broadleaf weeds (eclipta prostrata, rorippa dubia, Abutilon theophrasti, conyza canadensis, veronica persica, myosoton aquaticum, polygonum lapathifolium, galium aparine var. tenerum, alisma plantago-aquatica, geranium carolinianum) were sown in paper cup containing nutrient soil with a diameter of 7 cm, covered with soil for 1 cm after sowing. After pressing and watering, they were cultured in a greenhouse according to a conventional method. Poaceae weeds grew to 3˜4 leaf stage, broad-leaved weeds grew to 4˜6 leaf stage, spraying treatment to both stem and leaf was performed; and pre-seedling soil spray treatment was performed 24 hours after sowing. Following an experimental design dosage, a WP-2000 walking spray tower (spindle speed 96 mm/r, spray height 200 mm, effective spray amplitude of nozzle 350 mm, nozzle flow rate 390 mL/min, nozzle walking speed 210 mm/s) was used for the spray treatment. The experiment was repeated three times. After being treated, a sample material is placed in an operation hall, and after the drug solution is naturally dried out, the sample material is placed in a greenhouse and managed according to the conventional method. A reaction of weeds to the drug agent is observed and recorded, and a regularly visual check of a control effect of the drug agent on weeds was performed after the treatment.
# (§3) All of original drugs were using acetone as a solvent, being diluted with 0.1 wt % emulsifier of Tween-80 aqueous solution, and being diluted right before using.
# (§4) When determining a ratio or content of the active ingredient A and the active ingredient B, it should be measured from characteristics of action of both agents and virulence thereof, as well as the main purpose of use of a formula shall also be considered in. In the present study, on a basis of previous pre-test, the dosages of the active ingredient A and the active ingredient B were set, when being used alone and mixed, as shown in the following table. Water containing no agent, but containing the same solvent and emulsifier was used as a blank control.
# (§5) Repeat 4 times for each treatment, 3 pots per treatment each time and 30 weed seeds were sown for each pot.
# (§6) Adopting an absolute number survey method, using a blade to cut the whole seedling of surviving weed along soil surface, and weighting the fresh weight of the weed with an analytical balance. For weeds that had died, counting the fresh weight as zero.
# (§7) Survey period and frequency: 21 days after the treatment, total 1 investigation.
# (§8) The theoretical fresh weight inhibition rate (E0-Expected Efficacy=[…]) of each treatment combination was calculated by Gowing method, and then compared with the measured inhibition rate (E-Observed Efficacy) to evaluate the combined effect type of both on weeds. When E-E0 value was greater than 10%, it was counted as a synergistic effect, less than −10%, it was counted as an antagonistic effect, and between −10%˜10%, it was counted as an additive effect. According to a plurality of factors including an actual control efficacy, a herbicide characteristic, a formula balance and other factors to determine the best ratio. In the formula, X is the fresh weight inhibition rate of the ingredient A at a dosage of P; Y is the fresh weight inhibition rate of the active ingredient B at a dosage of Q.
# (§9) The statistical results are shown in Table 1 to Table 44 below, except for those marked clearly as “pre-emergence treatment”, all others are “post-emergence treatment”. […]
# [2] = tested on: echinochloa crusgalli; details: for Fresh weight suppression rate %, B single dose: Table 22
# Protocol: as §1
# as §2, with “Following an experimental design dosage, a WP-2000 walking spray tower (spindle speed 96 mm/r, spray height 200 mm, effective spray amplitude of nozzle 350 mm, nozzle flow rate 390 mL/min, nozzle walking speed 210 mm/s) was used for the spray treatment.” left out, “method.” for “method. A reaction of weeds to the drug agent is observed and recorded, and a regularly visual check of a control effect of the drug agent on weeds was performed after the treatment.”
# as §3, §4, §5, §6, §7
# When E-E0 value was greater than 10%, it was counted as a synergistic effect, less than −10%, it was counted as an antagonistic effect, and between −10%˜10%, it was counted as an additive effect. […] In the formula, X is the fresh weight inhibition rate of the ingredient A at a dosage of P; Y is the fresh weight inhibition rate of the active ingredient B at a dosage of Q.
# [3] = tested on: digitaria sanguinalis; details: for Fresh weight inhibition rate %, B single agent: Table 41; for Fresh weight suppression rate %, B single agent: Table 14
# Protocol: as §1, §2, §3, §4, §5, §6, §7, §8, §9
compound,measurement,setting,value
CCOC(=O)C1(C)CC(c2cc(-n3c(=O)cc(C(F)(F)F)n(C)c3=O)c(F)cc2Cl)=NO1 (stereo not drawn) [SY-1604],"Fresh weight inhibition rate %, B single agent","[1]; Table 33, B 7.5 g a.i./ha",47.10%
same,"Fresh weight inhibition rate %, B single agent","[1]; Table 33, B 12.5 g a.i./ha",48.33%
same,"Fresh weight inhibition rate %, B single agent","[1]; Table 33, B 20 g a.i./ha",64.09%
same,"Fresh weight inhibition rate %, B single agent","[1]; Table 33, B 30 g a.i./ha",72.50%
same,"Fresh weight inhibition rate %, B single agent","[1]; Table 33, B 40 g a.i./ha",74.06%
COP(=S)(OC)SCC(=O)N(c1ccc(Cl)cc1)C(C)(C)C [anilofos],"Fresh weight suppression rate %, B single dose",[2]; B 60 g a.i./ha,37.41%
same,"Fresh weight suppression rate %, B single dose",[2]; B 80 g a.i./ha,41.96%
same,"Fresh weight suppression rate %, B single dose",[2]; B 105 g a.i./ha,46.85%
same,"Fresh weight suppression rate %, B single dose",[2]; B 120 g a.i./ha,64.69%
COc1cc(OC)nc(Oc2cccc(Oc3nc(OC)cc(OC)n3)c2C(=O)O)n1 [bispyribac-sodium],inhibition at 5 g/ha,"[2]; Echinochloa crus-galli, 504 h, Table 4, 5 g a.i./ha, post-emergence, 21 days after treatment, read-out: Fresh weight inhibition rate %, B single agent",14.3%
same,inhibition at 10 g/ha,"[2]; Echinochloa crus-galli, 504 h, Table 4, 10 g a.i./ha, post-emergence, 21 days after treatment, read-out: Fresh weight inhibition rate %, B single agent",21.9%
same,inhibition at 25 g/ha,"[2]; Echinochloa crus-galli, 504 h, Table 4, 25 g a.i./ha, post-emergence, 21 days after treatment, read-out: Fresh weight inhibition rate %, B single agent",30.1%
CCOC(=O)COc1ncccc1Oc1cc(-n2c(=O)cc(C(F)(F)F)n(C)c2=O)c(F)cc1Cl [epyrifenacil],"Fresh weight inhibition rate %, B single agent","[1]; Table 35, B 5 g a.i./ha",38.04%
same,"Fresh weight inhibition rate %, B single agent","[1]; Table 35, B 10 g a.i./ha",32.92%
same,"Fresh weight inhibition rate %, B single agent","[1]; Table 35, B 15 g a.i./ha",37.91%
same,"Fresh weight inhibition rate %, B single agent","[1]; Table 35, B 20 g a.i./ha",51.59%
C[C@@H](Oc1nc(F)c(Cl)c(N)c1Cl)C(=O)OCC1CCCO1 (stereo partly drawn) [fluchloraminopyr-tefuryl],"Fresh weight inhibition rate %, B single agent",[3]; B 50 g a.i./ha,47.40%
same,"Fresh weight inhibition rate %, B single agent",[3]; B 80 g a.i./ha,66.49%
same,"Fresh weight inhibition rate %, B single agent",[3]; B 120 g a.i./ha,74.76%
same,"Fresh weight inhibition rate %, B single agent",[3]; B 150 g a.i./ha,79.70%
COC(=O)[C@@H](C)O/N=C/c1cc(-n2c(=O)cc(C(F)(F)F)n(C)c2=O)c(F)cc1Cl [flufenoximacil],"Fresh weight inhibition rate %, B single agent","[1]; Table 36, B 5 g a.i./ha",34.41%
same,"Fresh weight inhibition rate %, B single agent","[1]; Table 36, B 10 g a.i./ha",51.91%
same,"Fresh weight inhibition rate %, B single agent","[1]; Table 36, B 15 g a.i./ha (row 5 + 15)",55.99%
same,"Fresh weight inhibition rate %, B single agent","[1]; Table 36, B 15 g a.i./ha (row 15 + 15)",55.99%
same,"Fresh weight inhibition rate %, B single agent","[1]; Table 36, B 20 g a.i./ha",59.18%
CCC[S+]([O-])c1c(C(F)(F)F)ccc(C(=O)Nc2nnc(C)o2)c1F (stereo not drawn) [flusulfinam],"Fresh weight suppression rate %, B single agent",[3]; B 15 g a.i./ha,34.84%
same,"Fresh weight suppression rate %, B single agent",[3]; B 30 g a.i./ha,36.52%
same,"Fresh weight suppression rate %, B single agent",[3]; B 37.5 g a.i./ha,40.37%
same,"Fresh weight suppression rate %, B single agent",[3]; B 45 g a.i./ha,50.75%
CC(C)N.O=C(O)CNCP(=O)(O)O [glyphosate-isopropylammonium],"Fresh weight inhibition rate %, B single agent","[1]; Table 18, B 160 g a.i./ha",27.36%
same,"Fresh weight inhibition rate %, B single agent","[1]; Table 18, B 240 g a.i./ha",32.37%
same,"Fresh weight inhibition rate %, B single agent","[1]; Table 18, B 350 g a.i./ha",35.52%
same,"Fresh weight inhibition rate %, B single agent","[1]; Table 18, B 500 g a.i./ha",45.72%
